Measurements published in patent US20030055106A1, “Therapeutic uses of peroxometallic compounds” (priority 1999, published 2003).

Columns and labels:
Rat aorta rings = experiment: Rat aortic ring assay (cell/microvessel migration in fibrin gel); type: cell-based
Text: FIG. 3: Micrographs of the cell migration from aortic rings embedded in fibrin (×12).
FIG. 4: Quantification of the cell migration from aortic rings in the presence of orthovanadate (plain bars); bpV(phen) (light gray bars); and bpV(pic) (dark gray bars). The control appears as an empty bar. Means and standard errors of the means are presented.
Rat aorta rings were embedded in fibrin matrix as previously described (107). Thoracic aortas excised from adult rats were rinsed in Hank's balanced salt solution (HBSS), and cleansed of periadventitial. One-mm long aortic rings were sectioned and rinsed in culture medium. Each of the aortic rings were then embedded in fibrin gel matrix. Migration of microvessels in fibrin gel was quantified by measuring the distance from the external surface of rat aortic rings towards the migrating vessels. Measurements were performed at day 15 by digitizing morphometry with a NIH image analysis system (FIGS. 3 and 4).

ETs (ET-1, ET-2, ET-3) = experiment: Plasma endothelin levels after insulin (RIA); type: in vivo; conditions: rats, bpV(phen) 0.5 mg/100 g b.w. i.p. 16 hours before insulin
Description: The data presented in Table III show the effect of bpV(phen) on the plasmatic levels of ETs. […] Two minutes following insulin administration (1.5 μg/100 g b.w, or vehicle), the plasma levels of ETs were determined. Insulin administration induced a strong increase of seric ET concentration (54). […] In addition, bpV(phen) decreased the insulin-stimulated levels of plasmatic ETs below control levels. […] ETs (ET-1, ET-2, ET-3) were measured by RIA (Amersham kit RPA 555) after lyophilization and extraction on C2 columns (500 mg). Results are mean ±SEM, p<0.0209, control (n=4) vs Insulin, pV (n=3).

[1] = system: PC3 prostate cancer cells; experiment: In vitro collagen-fibrin tumor progression model, PC-3; type: cell-based, human; conditions: renewed daily, 15 days
Description: FIG. 11: Illustration of the antitumor activity of bpV(phen) in vitro using PC3 prostate cancer cells. Collagen gels containing the PC3 cells were prepared according to the method of Esdale and Bard (1972). Briefly, stock collagen solution (3.5 mg/ml in acetic acid 0.02N; Rat tail) was added to a mixture composed of culture medium (5×), fetal bovine serum (FBS), bicarbonate (0.26M), and was neutralized with 0.1N NaOH. A cell suspension (1.42×10^6 cells/ml) was mixed into the collagen-medium mixture to obtain a final concentration of 2.5×10^5 cells/ml.
A DMEM medium, having a normal concentration of glucose and without phenol red, was used. After gelification (within 1 h) of the collagen mixture containing the cells, the gels were removed from their culture wells (mould) and interwoven into a receptor hole prepared in a fibrin gel, as previously described (103). The fibrin gel was made from a 0.3% fibrinogen solution in Hank's balanced salt solution. Fibrin was allowed to polymerize with thrombin (stock solution at 1.75 mg/ml) at a ratio of 1:003 v/v fibrin to thrombin. The collagen-fibrin complexes were then covered with serum-supplemented medium according to the cell types. An inhibitor of plasminogen activator (Trasylol, Parke Davies) was added into the medium at 10 μl/ml (100U/ml).
Cell behavior was periodically monitored over 15 days of culture. […]

[2] = system: ZR-75 breast cancer cells; experiment: In vitro collagen-fibrin tumor progression model, ZR-75; type: cell-based, human
Text: FIG. 12: Illustration of the antitumor activity of bpV(phen) in vitro using ZR-75 breast cancer cells. Experiments were done as described for the FIG. 11 except that DMEM medium having a high glucose concentration and without phenol red was used. 10% FBS was used instead of 5% FBS. The media was supplemented with 10^−9 M estradiol (final concentration).
The cells embedded in the collagen gel, grew as a “primary tumor”. Some cells migrated from the primary tumor towards the fibrin gel, forming front edges. […] Their extension and numbers are representative of the invasive potential of the cancer cells.

[3] = system: ZR-75-1 human breast cancer; experiment: ZR-75-1 human breast cancer xenograft; type: in vivo, Female homozygous HSD nu/nu athymic mice; conditions: 2.5 mg/Kg daily i.p., 42 days; E1 replacement
Description: A) ZR-75-1 human breast cancer: ZR-75-1 human breast cancer cells obtained from the American Tissue Culture Collection (Rockville, Md.) were cultured in phenol red-free RPMI 1640. […] Female homozygous HSD nu/nu athymic mice (50 days old) were obtained from Harlan Sprague Dawley Inc. (Indianapolis, Ind.). Five mice were housed per vinyl cage, which was equipped with air filter lids and kept in laminar air flow hoods under pathogen-limiting conditions. The photoperiod was composed of a period of 14 h of light and a period of 10 h of darkness. Cages, bedding, and food (Agway Pro-Lab R-M-H diet #4018) were autoclaved prior to use. […] Bilateral ovariectomy (OVX) was performed on all animals one week prior to cell inoculation, under 2.5% isoflurane anesthesia mixed with oxygen. Simultaneously, an oestrogen (E2) implant was inserted subcutaneously to stimulate […] tumor growth and appearance. E2 implants were prepared in 1-cm long silastic tubing (inside diameter, 0.062 inch; outside diameter, 0.095 inch) containing 0.5 cm of estradiol/cholesterol diluted at a ratio of 1:10 (w:w). […] Statistical significance of treatment effect was assessed by repeated measures ANOVA after applying a power transformation to equalize residual variances and linearize the tumor growth curves.

O.O.O.OO.OO.[K+].[OH-].[V].c1cnc2c(c1)ccc1cccnc12 [bpV(phen), potassium bisperoxo(1,10-phenanthroline)oxovanadate]
cell migration from aortic rings (Rat aorta rings; 1 μM, compared to control): impaired
cell migration from aortic rings (Rat aorta rings; 3.5 μM): strong inhibition
insulin-induced increase of seric ET concentration (ETs (ET-1, ET-2, ET-3)): completely abolished
Plasma endothelins (ETs (ET-1, ET-2, ET-3); two minutes after insulin 1.5 μg/100 g b.w., mean ±SEM, n=3): 77.68 ± 3.08 pg/mL
progression of PC-3 cells (secondary tumors, migration front) ([1]; 2 μM): a decrease in the size of the secondary tumor was observed
progression of PC-3 cells (secondary tumors, migration front) ([1]; 5 and 10 μM): there was no migration front and there were no secondary tumors
progression of ZR-75-1 cells (primary and secondary tumors) ([2]; 2 μM): restricted the growth of the primary tumor
progression of ZR-75-1 cells (primary and secondary tumors) ([2]; 5 and 10 μM): there were no secondary tumors and the primary tumor had a lower cell density
tumor size [3]: do not resulted in increase of tumor size
